Consider 1 compound from patent publication US11878013B2, “Isoquinoline derivative, preparing method thereof, and pharmaceutical composition for preventing or treating autophagy related diseases containing the same as an active ingredient” (Korea Research Institute of Chemical Technology, priority 2021, dated 2024).

One data set relates to NO production. Put plainly: NO production in LPS-treated Raw 264.7 macrophages (Griess reagent). In kind it is cell-based, mouse. As to the method: In order to confirm the effect of the compound of Example 1 of the present invention on NO production in Raw 264.7 mouse macrophages in which inflammatory response was induced by LPS, an experiment was performed as follows.
(§1) Raw 264.7 mouse macrophages were aliquoted in a 96-well plate at the density of 1×10^5 cells/well and stabilized in a 37° C., 5% CO2 incubator for 24 hours. The Raw 264.7 cells were treated with the compound of Example 1 by concentration. After 1 hour, the cells were treated with 1 ug/ml of LPS and cultured for 24 hours. For the measurement of NO production, 40 mg/ml of Griess reagent was prepared and it was mixed with the culture supernatant at the same ratio. The mixture was reacted at room temperature for 15 minutes, and absorbance was measured at 540 nm. Based on the results obtained therefrom, the cell viability and NO production rate were expressed as percentages in terms of LPS.
In general terms: The Griess reaction detects nitrite, a stable product of nitric oxide.

The test system of data set [1] is Raw 264.7 mouse macrophages. Put plainly: Cell viability of LPS-treated Raw 264.7 macrophages. In kind it is cell-based. As to the method: as §1
The subject of the next data set is zebrafish. Put plainly: Whitening effect: melanin synthesis / melanocyte formation in zebrafish. In kind it is in vivo. An excerpt:
When observing the regeneration of melanin pigment, after inhibiting the formation of melanin pigment, it can be investigated by limiting it to the melanocyte generation pathway, and it is easy to observe the melanin synthesized in the initial stage of development. Therefore, zebrafish is more useful for the study of melanin pigment changes compared to other animal models (Logan D W, Burn S F, Jackson I J. (2006) Regulation of pigmentation in zebrafish melanophores. Pigment Cell Res. 2006 June; 19(3):206-13.).
Particularly, zebrafish fertilized eggs 10 hours after fertilization were placed in a 24-well plate (10 eggs/well), and 1 ml of egg water was added to each well of the plate. The compound of Example 1 was added to each well at the concentrations of 0.1 μM and 1 μM, so that the final volume of each well was 2 ml. Then, each 24-well plate was wrapped in foil to block light, and then incubated in a 28° C. incubator for 22 hours. At 32 hours after fertilization, in order to photograph the formation of black melanocytes, the chorion of the developing embryo was peeled off using a forcep (Fine Science Tools). After anesthetizing the developing embryo with Tricaine (4 g/L), the embryo was photographed on 3% methyl cellulose. As the equipment for photographing the developing embryo, a LEICA MZ10F fluorescence microscope, a LEICA DFC425 camera, and Leica Application Suite software (v4.5) were used. In all the experimental procedures, egg water sterilized after dissolving 60 mg/L of sea salt (Sigma-Aldrich, S9883) in tertiary distilled water was used as a solution for culturing the developing embryo. As a control group, a solvent control group (0.4% DMSO) and phenylthiourea (200 μM PTU), known as a tyrosinase inhibitor, were used (FIG. 6A).
In the same manner, experiments were performed with the compound of Comparative Example 1 at the concentrations of 0.5 μM, 1 μM, and 5 μM, and the results are shown in FIG. 6B.
On the other hand, in order to confirm the ability of the compound of the present invention to inhibit the melanin synthesis of the already generated melanocytes, the following experiment was performed with juvenile fish 60 hours after fertilization. Particularly, juvenile fish 60 hours after fertilization were placed in a 24-well plate (10/well), and 1 ml of egg water was added to each well of the plate. The compound of Example 1 was added to each well at the concentrations of 10 μM and 20 μM, so that the final volume of each well was 2 ml. Then, each 24-well plate was wrapped in foil to block light, and then incubated in a 28° C. incubator for 12 hours. In order to photograph the formation of black melanocytes, the developing embryo was anesthetized with Tricaine (4 g/L), and then the embryo was photographed on 3% methyl cellulose. […]

In data set [2] the target is T1, hERG channel protein (Homo sapiens, UniProt Q12809).
T1 construct: expressed in transfected cells; host or cells: HEK-293
T1 sequence (Q12809 whole entry): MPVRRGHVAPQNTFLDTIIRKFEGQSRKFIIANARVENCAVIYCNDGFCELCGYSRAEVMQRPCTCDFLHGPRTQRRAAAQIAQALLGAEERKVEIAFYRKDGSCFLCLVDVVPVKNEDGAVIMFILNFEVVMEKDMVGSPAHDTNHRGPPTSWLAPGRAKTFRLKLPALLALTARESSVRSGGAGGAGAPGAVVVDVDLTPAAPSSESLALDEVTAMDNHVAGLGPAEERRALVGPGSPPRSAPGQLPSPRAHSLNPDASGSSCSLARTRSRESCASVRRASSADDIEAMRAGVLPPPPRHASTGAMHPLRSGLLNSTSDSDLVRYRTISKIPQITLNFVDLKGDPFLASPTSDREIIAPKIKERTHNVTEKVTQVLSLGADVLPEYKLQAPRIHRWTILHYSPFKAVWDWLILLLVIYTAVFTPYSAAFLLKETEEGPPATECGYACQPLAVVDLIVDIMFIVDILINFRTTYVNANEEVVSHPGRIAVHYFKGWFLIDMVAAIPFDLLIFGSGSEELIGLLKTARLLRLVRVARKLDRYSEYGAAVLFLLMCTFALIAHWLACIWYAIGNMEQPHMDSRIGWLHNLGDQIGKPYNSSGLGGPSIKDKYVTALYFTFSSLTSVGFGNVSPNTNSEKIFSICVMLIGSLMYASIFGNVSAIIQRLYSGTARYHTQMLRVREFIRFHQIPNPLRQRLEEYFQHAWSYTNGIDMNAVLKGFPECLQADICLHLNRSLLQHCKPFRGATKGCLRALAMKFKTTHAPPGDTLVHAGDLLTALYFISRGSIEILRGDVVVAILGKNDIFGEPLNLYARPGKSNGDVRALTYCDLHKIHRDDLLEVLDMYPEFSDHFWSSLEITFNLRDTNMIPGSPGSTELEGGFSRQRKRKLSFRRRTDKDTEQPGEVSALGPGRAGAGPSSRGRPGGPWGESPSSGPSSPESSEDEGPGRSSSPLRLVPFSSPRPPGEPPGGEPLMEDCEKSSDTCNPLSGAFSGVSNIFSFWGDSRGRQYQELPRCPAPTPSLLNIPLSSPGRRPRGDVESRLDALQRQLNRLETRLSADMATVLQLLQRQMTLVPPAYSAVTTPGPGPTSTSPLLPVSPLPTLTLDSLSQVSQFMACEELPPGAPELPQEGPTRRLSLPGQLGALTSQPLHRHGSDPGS
Put plainly: hERG ligand binding test (fluorescence polarization). The note with it: at 10 μM. Here is the method: (§2) In order to evaluate the possibility of inducing cardiotoxicity of the compound of Example 1 of the present invention in vivo, the inhibitory potential to the hERG (human ether-a-go-go related gene) K^+ channel protein, known as a main cause of arrhythmias, was tested.
First, a ligand binding test was performed to evaluate the binding force of the compound of Example 1 binding to the hERG channel protein in vitro. A biological membrane containing the hERG channel protein was aliquoted in a 384-black well plate (10 μl/well) at room temperature, and DMSO, E-4031 (positive control), and the compound of Example 1 prepared to be 4 times the final test concentration were added thereto (5 μl/well). A tracer material with a fluorescent material attached to astemizole, known as a selective binding substance to the hERG channel protein, was dispensed into a mixture of the two solutions (5 μl/well), and then incubated for 2 hours at room temperature where light was blocked. In order to excite the tracer material included in the reaction solution, the light of 530 nm was irradiated and the light of 585 nm returned back was measured by the polarization method. […] The binding force of the test material to the hERG protein was expressed as the inhibition rate (%) compared to the group treated with DMSO.
On the technique in general: hERG is a cardiac potassium channel; its block is linked to QT prolongation.

Data set [3] concerns the target T1, hERG channel protein. The data set is described as follows: hERG patch clamp test in HEK-293 cells overexpressing hERG. The note with it: at 10 μM. It counts as cell-based. Here is the method:
as §2
Next, in order to evaluate the activity of the hERG channel protein using an electrophysiological method, a patch clamp test was performed. The activity of the hERG channel protein was measured using the HEK-293 cell line overexpressing the hERG channel protein. The cells were acclimatized and cultured in a humidified 37° C. 5% CO2 incubator, washed with PBS (phosphate buffer solution) at the time of growth that occupies 70-80% of the culture dish every 2-3 days, and then subcultured by treating with Trypsin-EDTA. For the test, 2×10^5 cells were aliquoted in a 60 mm cell culture dish, and then cultured in a humidified 5% CO2 incubator for 48 hours. The cultured cells were detached by treating Trypsin-EDTA (Gibco, USA), and the flow of K^+ by the hERG channel protein was measured by applying an automated patch clamp equipment (PatchXpress, Molecular Device).

On to `[O-][S+](c1ccc(F)cc1)c1nccc2ccccc12` (stereo not drawn) [Example 1, 1-((4-Fluorophenyl)Sulfinyl)Isoquinoline], for which the “NO production (% of control)” value in the data set on NO production (1 ug/ml LPS, 24 hours, Raw 264.7 cells, test concentration not given) is 40 % of control. For the same compound, the NO production entry in the data set with NO production (LPS-treated Raw 264.7, 0.1, 0.5, 1, 10 and 100 μM, effect increased with concentration (FIG. 3)) was “inhibited”. Further, in data set [1] (LPS-treated Raw 264.7, 0.1, 0.5, 1, 10 and 100 μM (FIG. 3)), the cytotoxicity result is on record as “no significant cytotoxicity”. For the same compound, the “Cell viability (% of control)” value in data set [1] (LPS-treated Raw 264.7 cells, 24 hours, test concentration not given) was 90 % of control. Besides, the synthesis of melanin entry in the data set with zebrafish (1 μM, treated 10 hours after fertilization, read at 32 hours after fertilization, PTU 200 μM as control) is “level similar to that in the group treated with PTU”. Moreover, the “melanin synthesis inhibitory effect” value with zebrafish (20 μM, treated 60 hours after fertilization, read at 72 hours after fertilization, compared to PTU 0.2 mM) is listed as “superior melanin synthesis inhibitory effect compared to PTU”. Moreover, the “superior activity compared to Comparative Example 1 (melanin synthesis inhibition)” value in the data set with zebrafish (32 hours after fertilization, 1 μM vs 5 μM for PTU-like effect) is no less than 5 fold. The “inhibition of the binding of the hERG channel protein” value at hERG channel protein [2] is listed as “about 10%”. Further, the “inhibition of the activity of the hERG channel protein” value against hERG channel protein [3] is “about 10%”.
